# Source: PubChem BioAssay (NCI)
#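 Compound exposure: 48 hours, 5 concentrations, 96-well plates. GI50 marks 50% less growth. TGI: concentration producing complete growth inhibition.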
# Legend:
# Test in all cases: NCI tumour cell line growth inhibition, 48 h
# SN12C renal = tested on: SN12C renal
# UO-31 renal = tested on: UO-31 renal
# HOP-62 NSCLC = tested on: HOP-62 NSCLC
# SNB-19 CNS = tested on: SNB-19 CNS
# 786-0 renal = tested on: 786-0 renal
# NCI-H226 lung = tested on: NCI-H226 lung
# NCI-H460 lung = tested on: NCI-H460 lung
# SF-268 CNS = tested on: SF-268 CNS
# ACHN renal = tested on: ACHN renal
# SF-539 CNS = tested on: SF-539 CNS
# NCI-H522 lung = tested on: NCI-H522 lung
# SF-295 CNS = tested on: SF-295 CNS
# PC-3 prostate = tested on: PC-3 prostate
# CCRF-CEM leukemia = tested on: CCRF-CEM leukemia
# MDA-MB-231 breast = tested on: MDA-MB-231 breast
# MOLT-4 leukemia = tested on: MOLT-4 leukemia
# SK-MEL-28 melanoma = tested on: SK-MEL-28 melanoma
# T-47D breast = tested on: T-47D breast
# HCT-15 colon = tested on: HCT-15 colon
# BT-549 breast = tested on: BT-549 breast
# OVCAR-3 ovarian = tested on: OVCAR-3 ovarian
# HOP-92 NSCLC = tested on: HOP-92 NSCLC
# UACC-257 melanoma = tested on: UACC-257 melanoma
# TK-10 renal = tested on: TK-10 renal
# MALME-3M melanoma = tested on: MALME-3M melanoma
# UACC-62 melanoma = tested on: UACC-62 melanoma
# K-562 leukemia = tested on: K-562 leukemia
# HCT-116 colon = tested on: HCT-116 colon
# HT29 colon = tested on: HT29 colon
# SNB-75 CNS = tested on: SNB-75 CNS
# RPMI-8226 leukemia = tested on: RPMI-8226 leukemia
# DU-145 prostate = tested on: DU-145 prostate
# U251 CNS = tested on: U251 CNS
# EKVX NSCLC = tested on: EKVX NSCLC
# SK-OV-3 ovarian = tested on: SK-OV-3 ovarian
# SK-MEL-2 melanoma = tested on: SK-MEL-2 melanoma
# MDA-MB-435 = tested on: MDA-MB-435
# RXF 393 renal = tested on: RXF 393 renal
# HCC-2998 colon = tested on: HCC-2998 colon
# SK-MEL-5 melanoma = tested on: SK-MEL-5 melanoma
# OVCAR-4 ovarian = tested on: OVCAR-4 ovarian
# IGROV1 ovarian = tested on: IGROV1 ovarian
# MCF7 breast = tested on: MCF7 breast
# M14 melanoma = tested on: M14 melanoma
# CAKI-1 renal = tested on: CAKI-1 renal
# KM12 colon = tested on: KM12 colon
# A498 renal = tested on: A498 renal
# A549 NSCLC = tested on: A549 NSCLC
# SW-620 colon = tested on: SW-620 colon
# COLO 205 colon = tested on: COLO 205 colon
# NCI/ADR-RES ovarian = tested on: NCI/ADR-RES ovarian
# OVCAR-8 ovarian = tested on: OVCAR-8 ovarian
# HL-60(TB) leukemia = tested on: HL-60(TB) leukemia
# OVCAR-5 ovarian = tested on: OVCAR-5 ovarian
# LOX IMVI melanoma = tested on: LOX IMVI melanoma
# NCI-H23 lung = tested on: NCI-H23 lung
# HS 578T breast = tested on: HS 578T breast
# SR leukemia = tested on: SR leukemia
smiles,measurement,setting,value
COc1ccc2c(c1)C(=O)c1c-2n(CCCNCCO)c(=O)c2ccccc12,GI50,SN12C renal,118 nM
same,TGI,SN12C renal,1420 nM
same,GI50,UO-31 renal,90.4 nM
same,TGI,UO-31 renal,618 nM
same,GI50,HOP-62 NSCLC,57.5 nM
same,TGI,HOP-62 NSCLC,462 nM
same,GI50,SNB-19 CNS,117 nM
same,TGI,SNB-19 CNS,1060 nM
same,GI50,786-0 renal,67.8 nM
same,TGI,786-0 renal,568 nM
same,GI50,NCI-H226 lung,486 nM
same,TGI,NCI-H226 lung,2310 nM
same,TGI,NCI-H460 lung,137 nM
same,GI50,SF-268 CNS,120 nM
same,TGI,SF-268 CNS,1430 nM
same,GI50,ACHN renal,39.7 nM
same,TGI,ACHN renal,240 nM
same,GI50,SF-539 CNS,76.4 nM
same,TGI,SF-539 CNS,408 nM
same,GI50,NCI-H522 lung,17.4 nM
same,TGI,NCI-H522 lung,95.5 nM
same,GI50,SF-295 CNS,61.7 nM
same,TGI,SF-295 CNS,425 nM
same,GI50,PC-3 prostate,272 nM
same,TGI,PC-3 prostate,2290 nM
same,GI50,CCRF-CEM leukemia,22.7 nM
same,TGI,CCRF-CEM leukemia,1050 nM
same,GI50,MDA-MB-231 breast,543 nM
same,TGI,MDA-MB-231 breast,2330 nM
same,GI50,MOLT-4 leukemia,< 18.2 nM
same,TGI,MOLT-4 leukemia,5280 nM
same,GI50,SK-MEL-28 melanoma,897 nM
same,TGI,SK-MEL-28 melanoma,2490 nM
same,GI50,T-47D breast,56 nM
same,TGI,T-47D breast,1620 nM
same,GI50,HCT-15 colon,154 nM
same,TGI,HCT-15 colon,1180 nM
same,GI50,BT-549 breast,127 nM
same,TGI,BT-549 breast,672 nM
same,GI50,OVCAR-3 ovarian,331 nM
same,TGI,OVCAR-3 ovarian,1410 nM
same,GI50,HOP-92 NSCLC,87 nM
same,TGI,HOP-92 NSCLC,531 nM
same,GI50,UACC-257 melanoma,541 nM
same,TGI,UACC-257 melanoma,2130 nM
same,GI50,TK-10 renal,316 nM
same,TGI,TK-10 renal,3030 nM
same,GI50,MALME-3M melanoma,178 nM
same,TGI,MALME-3M melanoma,1240 nM
same,GI50,UACC-62 melanoma,312 nM
same,TGI,UACC-62 melanoma,1850 nM
same,GI50,K-562 leukemia,121 nM
same,GI50,HCT-116 colon,79.9 nM
same,TGI,HCT-116 colon,534 nM
same,GI50,HT29 colon,76.4 nM
same,TGI,HT29 colon,1760 nM
same,GI50,SNB-75 CNS,261 nM
same,TGI,SNB-75 CNS,1250 nM
same,GI50,RPMI-8226 leukemia,72.7 nM
same,TGI,RPMI-8226 leukemia,594 nM
same,GI50,DU-145 prostate,46.9 nM
same,TGI,DU-145 prostate,331 nM
same,GI50,U251 CNS,82.1 nM
same,TGI,U251 CNS,1170 nM
same,GI50,EKVX NSCLC,349 nM
same,TGI,EKVX NSCLC,1500 nM
same,GI50,SK-OV-3 ovarian,218 nM
same,TGI,SK-OV-3 ovarian,1420 nM
same,GI50,SK-MEL-2 melanoma,734 nM
same,TGI,SK-MEL-2 melanoma,2570 nM
same,GI50,MDA-MB-435,322 nM
same,TGI,MDA-MB-435,1620 nM
same,GI50,RXF 393 renal,963 nM
same,TGI,RXF 393 renal,3950 nM
same,GI50,HCC-2998 colon,109 nM
same,TGI,HCC-2998 colon,479 nM
same,GI50,SK-MEL-5 melanoma,63.4 nM
same,TGI,SK-MEL-5 melanoma,202 nM
same,GI50,OVCAR-4 ovarian,301 nM
same,TGI,OVCAR-4 ovarian,2230 nM
same,GI50,IGROV1 ovarian,150 nM
same,TGI,IGROV1 ovarian,2330 nM
same,GI50,MCF7 breast,< 11.5 nM
same,TGI,MCF7 breast,434 nM
same,GI50,M14 melanoma,320 nM
same,TGI,M14 melanoma,1480 nM
same,GI50,CAKI-1 renal,107 nM
same,TGI,CAKI-1 renal,659 nM
same,GI50,KM12 colon,200 nM
same,TGI,KM12 colon,1240 nM
same,GI50,A498 renal,80.7 nM
same,TGI,A498 renal,520 nM
same,GI50,A549 NSCLC,62.6 nM
same,TGI,A549 NSCLC,310 nM
same,GI50,SW-620 colon,53 nM
same,TGI,SW-620 colon,1460 nM
same,GI50,COLO 205 colon,74.6 nM
same,TGI,COLO 205 colon,1650 nM
same,GI50,NCI/ADR-RES ovarian,807 nM
same,TGI,NCI/ADR-RES ovarian,3380 nM
same,GI50,OVCAR-8 ovarian,90.8 nM
same,TGI,OVCAR-8 ovarian,1900 nM
same,GI50,HL-60(TB) leukemia,169 nM
same,TGI,HL-60(TB) leukemia,1690 nM
same,GI50,OVCAR-5 ovarian,346 nM
same,TGI,OVCAR-5 ovarian,1110 nM
same,GI50,LOX IMVI melanoma,47.3 nM
same,TGI,LOX IMVI melanoma,224 nM
same,GI50,NCI-H23 lung,120 nM
same,TGI,NCI-H23 lung,563 nM
same,GI50,HS 578T breast,262 nM
same,TGI,HS 578T breast,2240 nM
same,GI50,SR leukemia,< 20.7 nM
same,TGI,SR leukemia,1800 nM
